# According to patent publication US20030022921A1, “Stable pharmaceutical formulation comprising torsemide modification II” (priority 2001, published 2003):
# Experiment: Polymorphic content by XRPD in bulk torsemide modification II on storage
# Type: physicochemical
# Set-up: key to Polymorphic form detected (I or II): “I” is Torsemide Modification I; “II” is Torsemide Modification II
# Settings: for Polymorphic form detected (I or II) / Polymorph Content / Polymorph Content: amount of Torsemide Modification I: bulk
# Source text: 1. The present procedure is used for the detection and quantitative determination of the presence of torsemide modification I in tablets wherein the active ingredient is high purity torsemide modification II. The present procedure is also used for the detection and quantitative determination of torsemide modification I in bulk high purity torsemide modification II, which is to be used as the active ingredient in tablets. The present method is based on the unique x-ray powder diffraction pattern of torsemide modification I that is characterized by a strong peak at two-theta 5.7±0.2°, the presence of which indicates the presence of torsemide modification I in a sample of high purity torsemide modification II. 2.1 Instrument: Philips x-ray powder diffractometer. Goniometer model PW 1050/70, Cu-tube, curved graphite monochromator. 2.2 Sample holder: A standard aluminum sample holder with a rectangular cavity 20*15*0.3 mm inside it. Scanning range: 2θ=4° to at least 22° Step: 0.05° Step duration: 0.5 4.1 Gently grind a small amount of sample powder in an agate mortar with the pestle. 4.2 Fill the rectangular cavity on the sample holder with the powder.
# [1] = first storage column (condition not given), 1 week
# [2] = storage condition not given, 1 month
# [3] = storage condition not given, 2 months
# [4] = storage condition not given, 2 weeks
structure (smiles),measurement,setting,value
"Cc1cccc(Nc2ccncc2S(=O)(=O)NC(=O)NC(C)C)c1 [Bulk Lot No. 851700100, 1-Isopropyl-3-[(4-m-toluidino-3-pyridyl)-sulfonyl]urea]",Polymorphic form detected (I or II),"storage 40° C., 75% RH, 1 month",II
same,Polymorphic form detected (I or II),"storage 40° C., 75% RH, 2 months",II
same,Polymorphic form detected (I or II),"storage 40° C., 75% RH, 2 weeks",II
same,Polymorphic form detected (I or II),"storage 40° C., 75% RH, 3 months",II
same,Polymorphic form detected (I or II),"storage 40° C., 75% RH, 4 months",II
same,Polymorphic form detected (I or II),"storage 55° C., 1 month",II
same,Polymorphic form detected (I or II),"storage 55° C., 1 week",II
same,Polymorphic form detected (I or II),"storage 55° C., 2 months",II
same,Polymorphic form detected (I or II),"storage 55° C., 2 weeks",II
same,Polymorphic form detected (I or II),"storage 55° C., 3 months",II
same,Polymorphic form detected (I or II),"storage 55° C., 4 months",II
same,Rearrangement into different polymorphic forms of torsemide,"storage at 40° C. at 75% relative humidity for 3 months, tablet formulations or bulk active ingredient",does not undergo any significant rearrangement
same,Polymorphic stability during storage under stress conditions,listed as high purity torsemide modification II,stable during storage under stress conditions for at least 3 months
"Cc1cccc(Nc2ccncc2S(=O)(=O)NC(=O)NC(C)C)c1 [Bulk No. 851700200, 1-Isopropyl-3-[(4-m-toluidino-3-pyridyl)-sulfonyl]urea]",Polymorph Content,"first storage column (condition not given), 1 month",I + II
same,Polymorph Content,[1],II >> I
same,Polymorph Content: amount of Torsemide Modification I,[1],~0.4%
same,Polymorph Content,"first storage column (condition not given), 2 months",I + II
same,Polymorph Content,"first storage column (condition not given), 2 weeks",I + II
same,Polymorph Content,"first storage column (condition not given), 3 months",I > II
same,Polymorph Content,"first storage column (condition not given), 4 months",I + II
same,Polymorph Content,[2],II >> I
same,Polymorph Content: amount of Torsemide Modification I,[2],~1%
same,Polymorph Content,[3],II >> I
same,Polymorph Content: amount of Torsemide Modification I,[3],~6%
same,Polymorph Content,[4],II >> I
same,Polymorph Content: amount of Torsemide Modification I,[4],~0.5%
same,Polymorph Content,"storage condition not given, 3 months",I + II
same,Polymorph Content,"storage condition not given, 4 months",I + II
same,Polymorph Content,t = 0,II >>> I
same,Polymorph Content: amount of Torsemide Modification I,t = 0,< 0.3%
same,Polymorphic stability during storage under stress conditions,listed as torsemide modification II that contains trace amounts of torsemide modification,not stable during storage under stress condition for at least 3 months
